{
  "source": "patent US20240408115A1",
  "about": "“COMPOSITION AND METHODS OF TREATMENT USING […] - ENHANCED SUPPLEMENTATION” (Xygenyx Inc., priority 2023, published 2024)",
  "origin": "cited, not measured here",
  "key": {"[1]": {"conditions": "penetration enhancer for transdermal drugs"}, "[2]": {"system": "wide dynamic range neurons in the ventroposterolateral nucleus of the thalamus", "conditions": "in vivo"}, "[3]": {"conditions": "in vivo"}, "[4]": {"conditions": "topical formulations, within four weeks of treatment"}, "[5]": {"conditions": "topical, concentrations 0.5-5%"}, "F2-isoprostane": {"system": "F2-isoprostane", "conditions": "large doses of 1600-3200 IU/day"}, "[6]": {"conditions": "compared to α-tocopherol = 1.0"}, "[7]": {"conditions": "dietary supplementation, doses up to 400 IU/day"}, "[8]": {"conditions": "dietary intake in equal portions"}, "[9]": {"conditions": "in vivo", "remark": "listed apart in the source"}},
  "note": "Non-standard residues stand in square brackets, D forms with d. Residues, ends and D or L forms follow the SMILES beside them. Cit = NC(=O)NCCC[C@H](N)C(=O)O",
  "data": [
    {"compound": "CC(C)[C@@H]1CC[C@@H](C)C[C@H]1O", "note": "[Menthol]", "values": [
      {"measurement": "increase of transdermal drug uptake (factor)", "setting": "[1]", "value": "≥ 10"}
    ]},
    {"compound": "CCCCCc1cc(O)c2c(c1)OC(C)(C)C1CCC(C)=CC21", "note": "(stereo not drawn) [THC, Δ-9-tetrahydrocannabinol]", "values": [
      {"measurement": "potency in mediating pain relative to morphine", "setting": "[2]", "value": "ten times more powerful than morphine"}
    ]},
    {"compound": "CCNC(=O)CC[C@H](N)C(=O)O", "note": "[Theanine]", "values": [
      {"measurement": "dose considered safe and well-tolerated", "setting": "[3]", "value": "up to 400 mg per day"}
    ]},
    {"compound": "CC[C@H](C)[C@H](NC(=O)[C@H](CC(=O)O)NC(=O)[C@@H](N)CCCCN)C(=O)N[C@@H](CCCNC(N)=O)C(N)=O", "note": "[Tripeptide-10 citrulline] (H-KDI[Cit]-NH2)", "values": [
      {"measurement": "improvement of suppleness", "setting": "[4]", "value": "≤ 54", "unit": "%"}
    ]},
    {"compound": "C=CCCCCCCCCC(=O)N[C@@H](Cc1ccccc1)C(=O)O", "note": "[UP, Undecylenoyl phenylalanine]", "values": [
      {"measurement": "time to skin lightening effects", "setting": "[5]", "value": "≥ 7", "unit": "days"}
    ]},
    {"compound": "CC12CCC(CC1)C(C)(C)O2", "note": "[eucalyptol, 1,8-epoxy-p-menthane]", "values": [
      {"measurement": "increase of transdermal drug uptake (factor)", "setting": "[1]", "value": "more than 10"}
    ]},
    {"compound": "Cc1c(C)c2c(c(C)c1O)CC[C@@](C)(CCC[C@H](C)CCC[C@H](C)CCCC(C)C)O2", "note": "[α-tocopherol]", "values": [
      {"measurement": "blood plasma concentration of F2-isoprostane", "setting": "F2-isoprostane", "value": "significantly lower"},
      {"measurement": "relative biological activity", "setting": "[6]", "value": 1.0},
      {"measurement": "reduction of risk of coronary disease", "setting": "[7]", "value": "up to 34%"},
      {"measurement": "reduction of risk of developing neurodegenerative diseases such as Alzheimer's Syndrome or dementia", "setting": "[7]; controlled trials", "value": "≤ 24", "unit": "%"}
    ]},
    {"compound": "Cc1cc(O)c(C)c2c1O[C@](C)(CCC[C@H](C)CCC[C@H](C)CCCC(C)C)CC2", "note": "[β-tocopherol]", "values": [
      {"measurement": "relative biological activity", "setting": "[6]", "value": 0.5}
    ]},
    {"compound": "Cc1c(O)cc2c(c1C)O[C@](C)(CCC[C@H](C)CCC[C@H](C)CCCC(C)C)CC2", "note": "[γ-tocopherol]", "values": [
      {"measurement": "relative biological activity", "setting": "[6]", "value": 0.1},
      {"measurement": "concentration in vivo relative to α-tocopherol", "setting": "[8]", "value": "roughly 10%"}
    ]},
    {"compound": "Cc1cc(O)cc2c1O[C@](C)(CCC[C@H](C)CCC[C@H](C)CCCC(C)C)CC2", "note": "[δ-tocopherol]", "values": [
      {"measurement": "relative biological activity", "setting": "[6]", "value": 0.03}
    ]},
    {"compound": "HGH: hormone comprising a peptide chain that is synthesized in the pituitary gland", "values": [
      {"measurement": "biological half-life", "setting": "[9]", "value": "10-20 minutes"}
    ]}
  ]
}
